According to US12441718B2, “Selective angiotensin II compounds” (VICORE PHARMA AB, priority 2021, dated 2025):
Several values for one entry are separate records, joined by “and”; a condition that tells them apart may be missing. Equal entries are not always repeated. Where two headings read alike, the source gives them in different places.

How the values were obtained:
[1] = Metabolic stability in pooled human liver microsomes; format: in vitro ADME; conditions: pooled human liver microsomes 0.5 mg/mL, 1 μM test compound, 37° C., * rows = mean of two runs; for half-life at 1 μM: human, pooled human liver microsomes
Procedure, shortened: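 Pooled human liver microsomes (0.5 mg/mL in PBS) preincubated ±1 mM NADPH at 37° C; test compound added at 10 min to 1 μM final. Samples at 0, 5, 15 and 60 min quenched in acetonitrile, parent quantified by LC-MS/MS against a standard curve (terfenadine internal standard). Initial metabolic rate calculated with and without NADPH.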

[2] = target: T1, human recombinant AT2 receptor (Homo sapiens, UniProt P50052); experiment: Binding to AT2 receptor, radiometric scintillation assay (Eurofins ITEM26); conditions: for Ki: seven-point dose-response curve
T1 construct: purchased Eurofins ITEM26 (protocol number)
T1 sequence (P50052 1-363): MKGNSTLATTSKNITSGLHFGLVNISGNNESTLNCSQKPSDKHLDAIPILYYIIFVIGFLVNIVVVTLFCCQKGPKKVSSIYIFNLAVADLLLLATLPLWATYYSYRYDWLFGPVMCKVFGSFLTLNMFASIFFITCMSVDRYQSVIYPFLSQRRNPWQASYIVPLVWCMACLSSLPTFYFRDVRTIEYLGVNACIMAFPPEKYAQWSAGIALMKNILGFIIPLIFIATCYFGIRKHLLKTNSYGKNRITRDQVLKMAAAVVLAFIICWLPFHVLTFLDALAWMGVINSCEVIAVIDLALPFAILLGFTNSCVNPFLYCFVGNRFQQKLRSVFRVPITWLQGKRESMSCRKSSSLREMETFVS

CYP1A2 = target: T2, CYP1A2 (Homo sapiens, UniProt P05177); experiment: in vitro; format: in vitro ADME; conditions: human, microsomes, human liver microsomes, substrate phenacetin, read-out: CYP1A2 Inh %
T2 construct: isoform-specific substrates incubated with human liver microsomes; tissue Eurofins ITEMG232 (protocol number); host or cells: human liver microsomes
T2 sequence (P05177 whole entry, canonical isoform): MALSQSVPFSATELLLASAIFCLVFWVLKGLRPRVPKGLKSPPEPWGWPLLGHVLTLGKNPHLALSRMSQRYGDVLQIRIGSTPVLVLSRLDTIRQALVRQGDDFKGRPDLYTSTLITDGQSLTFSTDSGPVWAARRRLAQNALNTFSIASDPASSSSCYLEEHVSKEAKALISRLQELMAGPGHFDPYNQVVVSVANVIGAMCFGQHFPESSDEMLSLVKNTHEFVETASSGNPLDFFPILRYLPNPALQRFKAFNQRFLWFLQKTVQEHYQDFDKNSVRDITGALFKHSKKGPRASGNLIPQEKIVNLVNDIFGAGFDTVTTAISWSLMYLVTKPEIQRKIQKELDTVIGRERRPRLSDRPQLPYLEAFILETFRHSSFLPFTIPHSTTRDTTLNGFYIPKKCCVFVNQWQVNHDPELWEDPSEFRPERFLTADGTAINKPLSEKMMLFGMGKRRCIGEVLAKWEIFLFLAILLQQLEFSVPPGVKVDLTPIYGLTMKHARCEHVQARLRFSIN
Method: The following substrates were used; CYP1A phenacetin, CYP2B36 bupropion, CYP2C8 paclitaxel and amodiaquine, CYP2C9 diclofenac, CYP2C19 omeprazole, CYP2D6 dextromethorphan, CYP3A midazolam and testosterone.
At the end of the incubation, the formation of metabolite was monitored by HPLC-MS/MS as the peak area response.

CYP2B6 = target: T3, CYP2B6 (Homo sapiens, UniProt P20813); experiment: CYP inhibition in human liver microsomes (Eurofins ITEMG232); format: in vitro ADME; conditions: probe bupropion, substrate bupropion, read-out: CYP2B6 Inh %
T3 construct: isoform-specific substrates incubated with human liver microsomes; tissue Eurofins ITEMG232 (protocol number); host or cells: human liver microsomes
T3 sequence (P20813 1-491): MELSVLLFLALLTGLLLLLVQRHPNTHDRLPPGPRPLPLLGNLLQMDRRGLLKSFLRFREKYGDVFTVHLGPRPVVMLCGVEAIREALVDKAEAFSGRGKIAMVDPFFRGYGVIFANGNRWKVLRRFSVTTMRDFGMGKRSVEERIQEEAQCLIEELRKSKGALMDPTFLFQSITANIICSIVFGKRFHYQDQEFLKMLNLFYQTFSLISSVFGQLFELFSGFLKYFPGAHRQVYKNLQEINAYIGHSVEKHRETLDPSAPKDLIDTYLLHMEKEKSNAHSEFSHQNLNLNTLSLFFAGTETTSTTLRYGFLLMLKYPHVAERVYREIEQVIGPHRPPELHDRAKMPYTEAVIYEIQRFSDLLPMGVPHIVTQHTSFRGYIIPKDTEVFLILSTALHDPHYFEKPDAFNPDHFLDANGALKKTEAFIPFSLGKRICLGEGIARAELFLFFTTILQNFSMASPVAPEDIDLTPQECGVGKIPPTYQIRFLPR

CYP2C19 = target: T4, CYP2C19 (Homo sapiens, UniProt P33261); experiment: as above; format: in vitro ADME; conditions: human, probe omeprazole, substrate omeprazole, read-out: CYP2C19 Inh %
T4 construct: isoform-specific substrates incubated with human liver microsomes; tissue Eurofins ITEMG232 (protocol number); host or cells: human liver microsomes
T4 sequence (P33261 whole entry, canonical isoform): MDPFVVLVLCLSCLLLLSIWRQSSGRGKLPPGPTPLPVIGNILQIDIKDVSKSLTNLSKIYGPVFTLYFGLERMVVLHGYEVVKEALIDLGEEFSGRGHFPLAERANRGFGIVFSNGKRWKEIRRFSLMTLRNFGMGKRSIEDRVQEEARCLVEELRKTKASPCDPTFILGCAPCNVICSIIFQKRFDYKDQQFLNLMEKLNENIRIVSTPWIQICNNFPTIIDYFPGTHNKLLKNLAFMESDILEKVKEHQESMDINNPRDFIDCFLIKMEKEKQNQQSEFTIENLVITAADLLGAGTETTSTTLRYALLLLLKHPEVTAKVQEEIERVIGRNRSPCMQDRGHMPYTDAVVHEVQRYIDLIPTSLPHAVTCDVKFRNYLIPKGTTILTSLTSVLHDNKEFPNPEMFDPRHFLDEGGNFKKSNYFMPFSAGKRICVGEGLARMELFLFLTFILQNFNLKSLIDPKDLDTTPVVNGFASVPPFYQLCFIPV

CYP2C8 = target: T5, CYP2C8 (Homo sapiens, UniProt P10632); experiment: as above; format: in vitro ADME; conditions: human, probe paclitaxel and amodiaquine, substrate paclitaxel and amodiaquine, read-out: CYP2C8 Inh %
T5 construct: isoform-specific substrates incubated with human liver microsomes; tissue Eurofins ITEMG232 (protocol number); host or cells: human liver microsomes
T5 sequence (P10632 1-490): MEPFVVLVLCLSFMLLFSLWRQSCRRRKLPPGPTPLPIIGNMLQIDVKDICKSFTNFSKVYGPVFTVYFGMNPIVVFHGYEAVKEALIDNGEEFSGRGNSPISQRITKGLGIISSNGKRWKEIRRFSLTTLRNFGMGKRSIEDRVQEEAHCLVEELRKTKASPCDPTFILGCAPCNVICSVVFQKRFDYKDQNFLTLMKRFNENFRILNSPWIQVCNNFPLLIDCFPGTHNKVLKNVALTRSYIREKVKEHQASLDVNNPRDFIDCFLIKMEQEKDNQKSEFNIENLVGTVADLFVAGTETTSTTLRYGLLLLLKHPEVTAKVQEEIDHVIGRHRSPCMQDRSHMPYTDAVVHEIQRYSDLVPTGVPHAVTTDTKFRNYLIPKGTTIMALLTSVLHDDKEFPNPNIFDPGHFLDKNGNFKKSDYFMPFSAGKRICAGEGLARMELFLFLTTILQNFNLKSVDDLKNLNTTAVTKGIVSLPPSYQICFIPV

CYP2D6 = target: T6, CYP2D6 (Homo sapiens, UniProt P10635); experiment: as above; format: in vitro ADME; conditions: probe dextromethorphan, substrate dextromethorphan, read-out: CYP2D6 Inh %
T6 construct: isoform-specific substrates incubated with human liver microsomes; tissue Eurofins ITEMG232 (protocol number); host or cells: human liver microsomes
T6 sequence (P10635 whole entry, canonical isoform): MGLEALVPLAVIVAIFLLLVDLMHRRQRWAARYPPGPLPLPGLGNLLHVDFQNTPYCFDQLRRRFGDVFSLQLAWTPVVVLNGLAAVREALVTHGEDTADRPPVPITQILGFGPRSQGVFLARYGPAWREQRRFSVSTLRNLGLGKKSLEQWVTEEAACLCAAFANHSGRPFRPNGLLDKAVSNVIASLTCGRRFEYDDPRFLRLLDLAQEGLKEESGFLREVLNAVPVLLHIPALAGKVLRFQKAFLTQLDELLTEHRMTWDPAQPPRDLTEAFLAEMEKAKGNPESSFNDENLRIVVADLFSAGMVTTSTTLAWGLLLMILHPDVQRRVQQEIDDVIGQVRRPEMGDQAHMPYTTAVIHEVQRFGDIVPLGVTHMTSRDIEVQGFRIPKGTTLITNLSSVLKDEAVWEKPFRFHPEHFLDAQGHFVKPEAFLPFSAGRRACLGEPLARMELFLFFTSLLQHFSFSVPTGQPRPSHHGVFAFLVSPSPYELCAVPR

CYP3A4&5 = experiment: in vitro; conditions: human, human liver microsomes, probe testosterone;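 also: Read-out is the metabolite generated from the probe substrate, quantified as HPLC-MS/MS peak area once incubation ends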
CYP2C9 = CYP2C9 (Homo sapiens, UniProt P11712); experiment: CYP inhibition in human liver microsomes (Eurofins ITEMG232); format: in vitro ADME; set-up: isoform-specific substrates incubated with human liver microsomes; tissue Eurofins ITEMG232 (protocol number); host or cells: human liver microsomes; conditions: human, probe diclofenac, substrate diclofenac, read-out: CYP2C9 Inh %
Chain of CYP2C9 (P11712 whole entry, canonical isoform): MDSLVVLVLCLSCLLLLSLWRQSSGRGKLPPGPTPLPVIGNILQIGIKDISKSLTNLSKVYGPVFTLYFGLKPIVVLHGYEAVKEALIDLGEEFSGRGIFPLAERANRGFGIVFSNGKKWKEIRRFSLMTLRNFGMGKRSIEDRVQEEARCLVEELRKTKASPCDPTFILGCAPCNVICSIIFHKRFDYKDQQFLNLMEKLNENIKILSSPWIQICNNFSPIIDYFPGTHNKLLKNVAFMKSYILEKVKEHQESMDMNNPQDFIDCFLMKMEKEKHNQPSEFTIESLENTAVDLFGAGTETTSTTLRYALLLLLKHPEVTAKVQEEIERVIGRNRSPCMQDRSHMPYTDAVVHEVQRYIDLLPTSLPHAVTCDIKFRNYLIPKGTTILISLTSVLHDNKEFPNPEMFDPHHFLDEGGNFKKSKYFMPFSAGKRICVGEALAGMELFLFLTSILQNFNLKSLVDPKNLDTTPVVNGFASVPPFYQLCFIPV

CYP3A4 = CYP3A4 (Homo sapiens, UniProt P08684); experiment: CYP inhibition in human liver microsomes (Eurofins ITEMG232), midazolam substrate; format: in vitro ADME; set-up: isoform-specific substrates incubated with human liver microsomes; tissue Eurofins ITEMG232 (protocol number); host or cells: human liver microsomes; conditions: human, probe midazolam, read-out: CYP3A4 midazolam Inh %
Chain of CYP3A4 (P08684 whole entry, canonical isoform): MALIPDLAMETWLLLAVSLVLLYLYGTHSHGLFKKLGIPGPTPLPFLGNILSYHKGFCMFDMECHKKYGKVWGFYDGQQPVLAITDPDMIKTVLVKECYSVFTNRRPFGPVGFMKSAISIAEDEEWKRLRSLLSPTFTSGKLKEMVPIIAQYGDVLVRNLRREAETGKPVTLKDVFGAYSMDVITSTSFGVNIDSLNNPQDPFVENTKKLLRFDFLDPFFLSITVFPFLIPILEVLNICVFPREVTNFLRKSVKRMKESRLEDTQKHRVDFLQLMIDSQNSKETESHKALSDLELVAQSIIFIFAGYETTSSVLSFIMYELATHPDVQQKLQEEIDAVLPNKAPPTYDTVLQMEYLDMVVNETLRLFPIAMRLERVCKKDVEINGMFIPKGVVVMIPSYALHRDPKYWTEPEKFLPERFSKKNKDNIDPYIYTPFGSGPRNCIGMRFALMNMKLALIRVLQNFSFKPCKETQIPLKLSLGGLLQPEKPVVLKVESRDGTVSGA

[3] = target: T7, human recombinant AT1 receptor (Homo sapiens, UniProt P30556); experiment: Binding to AT1 receptor, radiometric scintillation assay (Eurofins ITEM24); conditions: test compounds at 1 and 10 μM, ligand 125I(sar1,Ile8)-AT-II; * rows = mean of runs
T7 construct: purchased Eurofins ITEM24 (protocol number)
T7 sequence (P30556 1-359): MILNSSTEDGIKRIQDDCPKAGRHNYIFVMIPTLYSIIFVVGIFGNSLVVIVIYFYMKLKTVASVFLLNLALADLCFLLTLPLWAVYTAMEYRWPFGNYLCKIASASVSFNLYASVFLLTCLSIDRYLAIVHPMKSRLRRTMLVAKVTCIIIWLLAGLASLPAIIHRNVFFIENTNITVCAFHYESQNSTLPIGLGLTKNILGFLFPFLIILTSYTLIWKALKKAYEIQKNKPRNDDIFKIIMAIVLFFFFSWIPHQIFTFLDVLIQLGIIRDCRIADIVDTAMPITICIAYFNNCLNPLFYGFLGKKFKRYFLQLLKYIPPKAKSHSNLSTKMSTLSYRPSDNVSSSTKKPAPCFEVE

[4] = with 1 mM NADPH, read-out: T1/2, + NaDPH
[5] = without NADPH, read-out: T1/2, no NaDPH
[6] = ligand 125I CGP 42112A, * rows = mean of runs
[7] = test compounds at 1, 10, 100 and 1000 nM, ligand 125I CGP 42112A, * rows = mean of runs, read-out: AT2 GraFit IC50

Structure (SMILES)	half-life at 1 μM [1, 4]	half-life at 1 μM [1, 5]	Ki [2, 6]	IC50 [2, 7]	inhibition at 10 µM (CYP1A2)	inhibition at 10 µM (CYP2B6)	inhibition at 10 µM (CYP2C19)	inhibition at 10 µM (CYP2C8)	inhibition at 10 µM (CYP2D6)	inhibition at 10 µM (CYP3A4&5)	inhibition at 10 µM (CYP2C9)	inhibition at 10 µM (CYP3A4)	T1/2, + NaDPH ([1]; with 1 mM NADPH)	T1/2, + NaDPH ([1]; with 1 mM NADPH, listed as Example 32*)	IC50 [3]	IC50 ([2]; AT2 GraFit IC50, value in parentheses after <0.3, value printed in parentheses behind the bound <0.3)
CCc1nccn1Cc1ccc(-c2cc(CC(C)C)ccc2S(=O)(=O)Nc2ncccn2)cc1F [Example 29, 4′-((2-Ethyl-1H-imidazol-1-yl)methyl)-3′-fluoro-5-isobutyl-N-(pyrimidin-2-yl)-[1,1′-biphenyl]-2-sulfonamide]	> 1 h	> 1 h	0.45 nM	0.9 nM	13.6%	25%	43.6%	58.2%	7.4%	21.8%	43%	15.4%				
CC(C)Cc1ccc(S(=O)(=O)Nc2ccsn2)c(-c2ccc(Cn3ccnc3C(C)(C)C)c(F)c2)c1 [Example 32, 4′-((2-(tert-Butyl)-1H-imidazol-1-yl)methyl)-3′-fluoro-5-isobutyl-N-(isothiazol-3-yl)-[1,1′-biphenyl]-2-sulfonamide]	0.233 h	> 1 h	0.92 nM	1.84 nM									0.217 h	0.225 h	14100 nM and 8500 nM and 11300 nM	
COc1cc(NS(=O)(=O)c2ccc(CC(C)C)cc2-c2ccc(Cn3ccnc3C(C)(C)C)c(F)c2)nc(OC)n1 [Example 35, 4′-((2-(tert-Butyl)-1H-imidazol-1-yl)methyl)-N-(2,6-dimethoxypyrimidin-4-yl)-3′-fluoro-5-isobutyl-[1,1′-biphenyl]-2-sulfonamide]	0.133 h	> 1 h	59.7 nM	119 nM											30800 nM	
CC(C)Cc1cc(-c2ccc(Cn3ccnc3C3CC3)c(F)c2)c(S(=O)(=O)Nc2ncccn2)s1 [Example 47, 3-(4-((2-Cyclopropyl-1H-imidazol-1-yl)methyl)-3-fluorophenyl)-5-isobutyl-N-(pyrimidin-2-yl)thiophene-2-sulfonamide]	> 1 h	> 1 h		< 0.3 nM											4900 nM	0.25 nM
CCc1nccn1Cc1ccc(-c2cc(CC(C)C)sc2S(=O)(=O)Nc2ncccn2)cc1 [Example 51, 3-(4-((2-Ethyl-1H-imidazol-1-yl)methyl)phenyl)-5-isobutyl-N-(pyrimidin-2-yl)thiophene-2-sulfonamide]	> 1 h	> 1 h	0.64 nM	1.28 nM											13900 nM	

More lines, in order of falling IC50 [2, 7], values ahead:

half-life at 1 μM [1, 4]	half-life at 1 μM [1, 5]	Ki [2, 6]	IC50 [2, 7]	inhibition at 10 µM (CYP1A2)	inhibition at 10 µM (CYP2B6)	inhibition at 10 µM (CYP2C19)	inhibition at 10 µM (CYP2C8)	inhibition at 10 µM (CYP2D6)	inhibition at 10 µM (CYP3A4&5)	inhibition at 10 µM (CYP2C9)	inhibition at 10 µM (CYP3A4)	T1/2, + NaDPH ([1]; with 1 mM NADPH)	T1/2, + NaDPH ([1]; with 1 mM NADPH, listed as Example 32*)	IC50 [3]	IC50 ([2]; AT2 GraFit IC50, value in parentheses after <0.3, value printed in parentheses behind the bound <0.3)	Structure (SMILES)
> 1 h	> 1 h	0.72 nM	1.44 nM											35100 nM		Cc1nccn1Cc1ccc(-c2cc(CC(C)C)sc2S(=O)(=O)Nc2ncccn2)cc1 [Example 50, 5-Isobutyl-3-(4-((2-methyl-1H-imidazol-1-yl)methyl)phenyl)-N-(pyrimidin-2-yl)thiophene-2-sulfonamide]
> 1 h	> 1 h	0.68 nM	1.36 nM											6700 nM		CC(C)Cc1cc(-c2ccc(Cn3ccnc3C(C)C)cc2)c(S(=O)(=O)Nc2ncccn2)s1 [Example 49, 5-Isobutyl-3-(4-((2-isopropyl-1H-imidazol-1-yl)methyl)phenyl)-N-(pyrimidin-2-yl)thiophene-2-sulfonamide]
> 1 h	> 1 h	0.4 nM	0.8 nM	22.2%	40.8%	65%	41.6%	14.2%	37.4%	31.1%	34.8%					Cc1nccn1Cc1ccc(-c2cc(CC(C)C)ccc2S(=O)(=O)Nc2ncccn2)cc1F [Example 28, 3′-Fluoro-5-isobutyl-4′-((2-methyl-1H-imidazol-1-yl)methyl)-N-(pyrimidin-2-yl)-[1,1′-biphenyl]-2-sulfonamide]
> 1 h	> 1 h	0.31 nM	0.61 nM	17.4%	15.7%	22.2%	21.3%	13.8%	25.9%	31.6%	28.3%					CC(C)Cc1ccc(S(=O)(=O)Nc2ncccn2)c(-c2ccc(Cn3ccnc3C(C)C)c(F)c2)c1 [Example 27, 3′-Fluoro-5-isobutyl-4′-((2-isopropyl-1H-imidazol-1-yl)methyl)-N-(pyrimidin-2-yl)-[1,1′-biphenyl]-2-sulfonamide]
